What all share (assay): KINOMEscan (ScanMAX) kinase profiling
Common to all, as to type: binding

For experiment [1], the target named is T1, panel of 468 kinases (Homo sapiens, UniProt O95747).
T1 construct: purchased KINOMEscan (ScanMAX) service
As to conditions: OSR1; 1 μM; read-out: % control.

Experiment [2] addresses T2, panel of 468 kinases (Homo sapiens, UniProt P30530).
T2 construct: purchased KINOMEscan (ScanMAX) service
T2 sequence (P30530 26-894): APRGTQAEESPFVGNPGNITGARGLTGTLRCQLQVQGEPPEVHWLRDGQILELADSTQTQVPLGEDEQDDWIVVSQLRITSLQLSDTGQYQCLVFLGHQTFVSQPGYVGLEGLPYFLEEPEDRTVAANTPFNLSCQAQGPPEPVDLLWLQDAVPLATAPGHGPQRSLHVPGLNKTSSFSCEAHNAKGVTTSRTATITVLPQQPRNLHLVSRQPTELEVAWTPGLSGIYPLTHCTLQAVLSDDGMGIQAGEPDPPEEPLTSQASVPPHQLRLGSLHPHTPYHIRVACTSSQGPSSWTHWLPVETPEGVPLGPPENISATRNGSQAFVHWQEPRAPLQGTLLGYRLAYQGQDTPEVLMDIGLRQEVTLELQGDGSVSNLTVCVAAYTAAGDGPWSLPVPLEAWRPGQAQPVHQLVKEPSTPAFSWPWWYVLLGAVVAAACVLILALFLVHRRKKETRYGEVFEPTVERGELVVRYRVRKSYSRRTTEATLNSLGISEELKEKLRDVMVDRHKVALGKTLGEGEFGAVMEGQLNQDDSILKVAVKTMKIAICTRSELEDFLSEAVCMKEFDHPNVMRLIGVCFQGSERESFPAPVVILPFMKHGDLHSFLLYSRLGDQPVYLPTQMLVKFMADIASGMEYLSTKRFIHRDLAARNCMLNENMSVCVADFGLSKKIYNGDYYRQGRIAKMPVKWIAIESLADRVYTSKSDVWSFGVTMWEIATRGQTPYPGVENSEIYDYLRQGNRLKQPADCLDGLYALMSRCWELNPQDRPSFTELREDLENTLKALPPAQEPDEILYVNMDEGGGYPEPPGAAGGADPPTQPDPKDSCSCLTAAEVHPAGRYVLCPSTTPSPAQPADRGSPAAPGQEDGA
To be noted: AXL; 1 μM; read-out: % control.

In experiment [3] the target is T3, panel of 468 kinases (Homo sapiens, UniProt P51451).
T3 construct: purchased KINOMEscan (ScanMAX) service
To be noted: BLK; 1 μM; read-out: % control.

Experiment [4] concerns the target T4, panel of 468 kinases (Homo sapiens, UniProt Q6ZWH5).
T4 construct: purchased KINOMEscan (ScanMAX) service
T4 sequence (Q6ZWH5 1-1172): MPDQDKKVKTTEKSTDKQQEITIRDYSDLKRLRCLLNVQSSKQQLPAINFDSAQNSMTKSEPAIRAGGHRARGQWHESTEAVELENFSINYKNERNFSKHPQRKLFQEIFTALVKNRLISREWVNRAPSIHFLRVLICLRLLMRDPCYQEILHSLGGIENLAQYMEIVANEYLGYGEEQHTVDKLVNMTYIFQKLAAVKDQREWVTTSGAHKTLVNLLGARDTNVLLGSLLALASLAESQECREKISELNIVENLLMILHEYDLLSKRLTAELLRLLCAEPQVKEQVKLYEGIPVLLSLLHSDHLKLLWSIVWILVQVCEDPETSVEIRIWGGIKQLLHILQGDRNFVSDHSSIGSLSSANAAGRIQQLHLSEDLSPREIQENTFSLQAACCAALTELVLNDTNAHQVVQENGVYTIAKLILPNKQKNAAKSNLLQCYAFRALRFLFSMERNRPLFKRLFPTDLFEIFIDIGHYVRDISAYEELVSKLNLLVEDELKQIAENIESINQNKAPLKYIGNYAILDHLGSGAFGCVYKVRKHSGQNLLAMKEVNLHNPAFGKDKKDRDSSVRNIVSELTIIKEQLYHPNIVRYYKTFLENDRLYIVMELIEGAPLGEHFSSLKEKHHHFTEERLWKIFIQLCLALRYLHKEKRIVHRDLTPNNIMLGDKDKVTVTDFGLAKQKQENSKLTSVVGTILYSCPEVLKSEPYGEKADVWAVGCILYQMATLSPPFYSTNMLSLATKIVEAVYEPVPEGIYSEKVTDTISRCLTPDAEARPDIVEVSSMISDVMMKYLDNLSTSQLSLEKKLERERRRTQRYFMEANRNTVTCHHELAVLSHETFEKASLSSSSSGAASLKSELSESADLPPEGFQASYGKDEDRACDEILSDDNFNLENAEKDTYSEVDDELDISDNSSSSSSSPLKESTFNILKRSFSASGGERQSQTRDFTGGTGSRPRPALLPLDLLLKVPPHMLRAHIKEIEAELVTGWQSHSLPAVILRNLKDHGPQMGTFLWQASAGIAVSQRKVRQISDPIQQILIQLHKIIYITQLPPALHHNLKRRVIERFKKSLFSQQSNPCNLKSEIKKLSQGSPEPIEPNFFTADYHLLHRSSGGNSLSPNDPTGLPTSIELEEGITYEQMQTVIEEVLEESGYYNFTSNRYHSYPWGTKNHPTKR
To be noted: NEK10; 1 μM; read-out: % control.

Molecules are shown by their SMILES.

3 compounds from patent publication US12479847B2 (DANA-FARBER CANCER INSTITUTE, INC., priority 2019, dated 2025) can be followed below.

T3 sequence (P51451 whole entry): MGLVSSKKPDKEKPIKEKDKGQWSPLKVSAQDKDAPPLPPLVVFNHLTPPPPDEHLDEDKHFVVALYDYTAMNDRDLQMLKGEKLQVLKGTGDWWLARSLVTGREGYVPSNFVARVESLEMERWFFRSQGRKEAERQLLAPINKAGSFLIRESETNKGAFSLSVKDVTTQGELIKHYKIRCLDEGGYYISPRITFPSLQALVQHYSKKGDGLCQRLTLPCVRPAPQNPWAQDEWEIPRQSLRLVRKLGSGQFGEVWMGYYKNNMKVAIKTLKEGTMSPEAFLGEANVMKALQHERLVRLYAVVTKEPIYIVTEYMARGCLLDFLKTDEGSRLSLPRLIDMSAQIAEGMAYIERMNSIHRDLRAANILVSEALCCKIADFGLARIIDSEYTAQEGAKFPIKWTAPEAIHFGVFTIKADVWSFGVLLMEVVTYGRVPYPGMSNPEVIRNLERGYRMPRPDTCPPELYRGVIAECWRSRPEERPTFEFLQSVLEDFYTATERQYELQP
T1 sequence (O95747 whole entry): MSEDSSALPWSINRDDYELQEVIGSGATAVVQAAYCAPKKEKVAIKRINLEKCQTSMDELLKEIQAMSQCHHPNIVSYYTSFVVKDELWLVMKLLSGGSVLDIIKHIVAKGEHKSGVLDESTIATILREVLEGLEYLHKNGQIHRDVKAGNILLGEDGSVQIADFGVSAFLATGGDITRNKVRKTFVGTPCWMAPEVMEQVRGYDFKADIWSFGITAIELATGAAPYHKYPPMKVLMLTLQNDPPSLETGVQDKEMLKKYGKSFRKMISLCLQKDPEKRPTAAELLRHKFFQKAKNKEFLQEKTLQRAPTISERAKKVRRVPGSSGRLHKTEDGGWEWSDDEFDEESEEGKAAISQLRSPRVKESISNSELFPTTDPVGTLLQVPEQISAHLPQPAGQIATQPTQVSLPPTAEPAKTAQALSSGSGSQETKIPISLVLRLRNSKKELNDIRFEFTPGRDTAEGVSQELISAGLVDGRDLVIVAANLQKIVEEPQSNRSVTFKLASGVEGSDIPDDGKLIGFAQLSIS

On to `CNc1nc(Nc2ccc(S(=O)(=O)N3CCC(N4CCOCC4)CC3)cc2OC)nc2[nH]cc(Cl)c12` [Compound 12, 5-chloro-N2-(2-methoxy-4-((4-morpholinopiperidin-1-yl)sulfonyl)phenyl)-N4-methyl-7H-pyrrolo[2,3-d]pyrimidine-2,4-diamine], for which the remaining binding at 1 µM was found to be 31% at panel of 468 kinases [1], 100% at panel of 468 kinases [2], 100% at panel of 468 kinases [3] and 63% on panel of 468 kinases [4].
As for `CNc1nc(Nc2ccc(P3(=O)CCN(C4CCOCC4)CC3)cc2OC)nc2[nH]cc(Cl)c12` [Compound 77, 4-(4-((5-chloro-4-(methylamino)-7H-pyrrolo[2,3-d]pyrimidin-2-yl)amino)-3-methoxyphenyl)-1-(tetrahydro-2H-pyran-4-yl)-1,4-azaphosphinane 4-oxide], the remaining binding at 1 µM on panel of 468 kinases [1] was 10%; at panel of 468 kinases [2], 93%; at panel of 468 kinases [3], 100%; on panel of 468 kinases [4], 39%.
In the case of `CNc1nc(Nc2ccc(C(=O)N3CCC(N4CCOCC4)CC3)c3c2OCO3)nc2[nH]cc(Cl)c12` [Compound 75, (7-((5-chloro-4-(methylamino)-7H-pyrrolo[2,3-d]pyrimidin-2-yl)amino)benzo[d][1,3]dioxol-4-yl)(4-morpholinopiperidin-1-yl)methanone], the remaining binding at 1 µM on panel of 468 kinases [1] is 24%; on panel of 468 kinases [2] it was 63%; on panel of 468 kinases [3], 100%; at panel of 468 kinases [4] it was 66%.
